Assay results reported in PubChem BioAssay AID1963451 (Molecular Pharmacology Branch, DTP, NCI, 2024).

Test system: 521955-158-R6-J3-PDC complex spheroid growth, % test/control
Experiment: Anticancer human tumor 521955-158-R6-J3-PDC patient-derived pancreatic carcinoma cell line growth inhibition [Asc]
Details: for IC50: curve of first compound; for viability, T/C: stronger effect = lower value; active means viability on the fitted dose curve at most 10% of control; inactive means the rest
Outline: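 Tumor cells were grown as complex spheroids with human endothelial cells (HUVEC) and human mesenchymal stem cells as stroma. Agents were tested alone and in combination, in half-log steps down from the clinical Cmax, or from 10 microM where Cmax was unknown.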
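Further: spheroids exposed to compounds for 7 days.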
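Wherever viability, T/C is given: 100% = DMSO vehicle control wells.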

O=C(c1cc(Cc2n[nH]c(=O)c3ccccc23)ccc1F)N1CCN(C(=O)C2CC2)CC1 + Cc1c(S(C)(=O)=O)c(-c2cc(F)cc(N3CCN(c4ccc(NS(=O)(=O)c5ccc(NC(CCN6CCC(C(=O)OCCCP(=O)(O)O)CC6)CSc6ccccc6)c(S(=O)(=O)C(F)(F)F)c5)cc4)CC3)c2)c(-c2ccc(Cl)cc2)n1C(C)C
> 10000 nM: IC50 (second compound 0.0316 µM) | IC50 (second compound 0.1 µM)
< 31.6 nM: IC50 (second compound 1 µM) | IC50 (second compound 3.16 µM) | IC50 (second compound 10 µM)
active: viability, T/C (second compound 10 µM, first compound 10 µM) 9.06%
786 nM: IC50 (second compound 0.316 µM)
inactive: viability, T/C (second compound 0.0316 µM, first compound 0.0316 µM) 77.8% | viability, T/C (second compound 0.0316 µM, first compound 0.1 µM) 86.6% | viability, T/C (second compound 0.0316 µM, first compound 0.316 µM) 87.5% | viability, T/C (second compound 0.0316 µM, first compound 1 µM) 83.3% | viability, T/C (second compound 0.0316 µM, first compound 3.16 µM) 75.6% | viability, T/C (second compound 0.0316 µM, first compound 10 µM) 76.8% | viability, T/C (second compound 0.1 µM, first compound 0.0316 µM) 88.4% | viability, T/C (second compound 0.1 µM, first compound 0.1 µM) 71.9% | viability, T/C (second compound 0.1 µM, first compound 0.316 µM) 64% | viability, T/C (second compound 0.1 µM, first compound 1 µM) 62.6% | viability, T/C (second compound 0.1 µM, first compound 3.16 µM) 60.7% | viability, T/C (second compound 0.1 µM, first compound 10 µM) 54% | viability, T/C (second compound 0.316 µM, first compound 0.0316 µM) 56.4% | viability, T/C (second compound 0.316 µM, first compound 0.1 µM) 61.7% | viability, T/C (second compound 0.316 µM, first compound 0.316 µM) 52.6% | viability, T/C (second compound 0.316 µM, first compound 1 µM) 48.6% | viability, T/C (second compound 0.316 µM, first compound 3.16 µM) 41.7% | viability, T/C (second compound 0.316 µM, first compound 10 µM) 35% | viability, T/C (second compound 1 µM, first compound 0.0316 µM) 41% | viability, T/C (second compound 1 µM, first compound 0.1 µM) 34.6% | viability, T/C (second compound 1 µM, first compound 0.316 µM) 31.1% | viability, T/C (second compound 1 µM, first compound 1 µM) 30.1% | viability, T/C (second compound 1 µM, first compound 3.16 µM) 32.4% | viability, T/C (second compound 1 µM, first compound 10 µM) 27.2% | viability, T/C (second compound 3.16 µM, first compound 0.0316 µM) 23.3% | viability, T/C (second compound 3.16 µM, first compound 0.1 µM) 19.1% | viability, T/C (second compound 3.16 µM, first compound 0.316 µM) 17.1% | viability, T/C (second compound 3.16 µM, first compound 1 µM) 19.3% | viability, T/C (second compound 3.16 µM, first compound 3.16 µM) 16% | viability, T/C (second compound 3.16 µM, first compound 10 µM) 13.4% | viability, T/C (second compound 10 µM, first compound 0.0316 µM) 14.4% | viability, T/C (second compound 10 µM, first compound 0.1 µM) 15.4% | viability, T/C (second compound 10 µM, first compound 0.316 µM) 11.7% | viability, T/C (second compound 10 µM, first compound 1 µM) 13% | viability, T/C (second compound 10 µM, first compound 3.16 µM) 10%

NC(=O)C(=Cn1cnc(-c2cc(C(F)(F)F)cc(C(F)(F)F)c2)n1)c1cncnc1 + CCN1C(C(=O)NC23CCC(C(=O)O)(CC2)CC3)C(c2cccc(Cl)c2F)C2(C(=O)Nc3cc(Cl)ccc32)C12CCCCC2
> 300 nM: IC50 (second compound 0.00949 µM) | IC50 (second compound 0.03 µM) | IC50 (second compound 0.0949 µM) | IC50 (second compound 0.3 µM) | IC50 (second compound 0.949 µM) | IC50 (second compound 3 µM)
inactive: viability, T/C (second compound 0.00949 µM, first compound 0.000949 µM) 99.6% | viability, T/C (second compound 0.00949 µM, first compound 0.003 µM) 86.8% | viability, T/C (second compound 0.00949 µM, first compound 0.00949 µM) 77.3% | viability, T/C (second compound 0.00949 µM, first compound 0.03 µM) 99% | viability, T/C (second compound 0.00949 µM, first compound 0.0949 µM) 82.9% | viability, T/C (second compound 0.00949 µM, first compound 0.3 µM) 93.2% | viability, T/C (second compound 0.03 µM, first compound 0.000949 µM) 93.7% | viability, T/C (second compound 0.03 µM, first compound 0.003 µM) 83.7% | viability, T/C (second compound 0.03 µM, first compound 0.00949 µM) 69.6% | viability, T/C (second compound 0.03 µM, first compound 0.03 µM) 86% | viability, T/C (second compound 0.03 µM, first compound 0.0949 µM) 103% | viability, T/C (second compound 0.03 µM, first compound 0.3 µM) 102% | viability, T/C (second compound 0.0949 µM, first compound 0.000949 µM) 88.8% | viability, T/C (second compound 0.0949 µM, first compound 0.003 µM) 87.3% | viability, T/C (second compound 0.0949 µM, first compound 0.00949 µM) 78.1% | viability, T/C (second compound 0.0949 µM, first compound 0.03 µM) 85.1% | viability, T/C (second compound 0.0949 µM, first compound 0.0949 µM) 98.8% | viability, T/C (second compound 0.0949 µM, first compound 0.3 µM) 113% | viability, T/C (second compound 0.3 µM, first compound 0.000949 µM) 88.7% | viability, T/C (second compound 0.3 µM, first compound 0.003 µM) 76.9% | viability, T/C (second compound 0.3 µM, first compound 0.00949 µM) 85.8% | viability, T/C (second compound 0.3 µM, first compound 0.03 µM) 82.2% | viability, T/C (second compound 0.3 µM, first compound 0.0949 µM) 117% | viability, T/C (second compound 0.3 µM, first compound 0.3 µM) 107% | viability, T/C (second compound 0.949 µM, first compound 0.000949 µM) 94% | viability, T/C (second compound 0.949 µM, first compound 0.003 µM) 78.3% | viability, T/C (second compound 0.949 µM, first compound 0.00949 µM) 95.1% | viability, T/C (second compound 0.949 µM, first compound 0.03 µM) 78.7% | viability, T/C (second compound 0.949 µM, first compound 0.0949 µM) 105% | viability, T/C (second compound 0.949 µM, first compound 0.3 µM) 98.1% | viability, T/C (second compound 3 µM, first compound 0.000949 µM) 87.2% | viability, T/C (second compound 3 µM, first compound 0.003 µM) 97.7% | viability, T/C (second compound 3 µM, first compound 0.00949 µM) 69.6% | viability, T/C (second compound 3 µM, first compound 0.03 µM) 75.7% | viability, T/C (second compound 3 µM, first compound 0.0949 µM) 99.8% | viability, T/C (second compound 3 µM, first compound 0.3 µM) 84.4%
